Results: US20230263789A1, “PHARMACEUTICAL COMPOSITION AND PREPARATION METHOD” (JIANGSU KANION PHARMACEUTICAL CO., LTD., priority 2020, published 2023)
Structures can show the parent of a compound that is named as a salt.

Assay: Preliminary test: dissolution of compound A with an acidic regulator
Format: physicochemical
Details: with an acidic regulator (citric acid or tartaric acid)
Text: To improve the solubility of insoluble medicines, surfactants, acid-base regulators and the like are mostly used in the prior art. […] However, the granules obtained in the preliminary study process can solve the problem of solubility, but the stability is insufficient. Therefore, how to improve the solubility of the active substance provided by the present invention and ensure the stability has become a difficult point in a medicine technology.

Dissolution of compound A: complete dissolution
SMILES: CCn1nnc(-c2ccc(OCCC(C)(C)CCN3CCN(c4ccnc(N)c4)S3(=O)=O)nc2)n1 [compound A, 2-(2-aminopyridine-4-yl)-5-(5-((5-(2-ethyl-2H-tetrazole-5-yl)pyridine-2-yl)-oxy)-3,3-amyldimethyl)-1,2,5-thiadiazolidin 1,1-dioxide hydrochloride]
